{
  "source": "paper PMC8543760",
  "about": "(Cell chemical biology, 2018)",
  "molecular_target": "cytoplasmic dynein 1 (Sus scrofa, UniProt A0A287B9W3)",
  "test": "microtubule-stimulated ATPase assay",
  "assay_type": "biochemical",
  "data": [
    {"smiles": "N#CC(=C(O)c1ccc(Cl)cc1Cl)c1nc2ccccc2c(=O)[nH]1", "note": "[Ciliobrevin A]", "values": [
      {"measurement": "IC50", "result": "~84", "unit": "µM"}
    ]}
  ]
}
